Results taken from the supplement of paper PMC8612539.
≈ marks a conversion by molar mass, not a printed value.

Test system: Escherichia coli
Assay: minimum inhibitory concentration (MIC)
Experimental: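 Broth microdilution MIC (Sensititre BOPO7F bovine plate, CLSI methods) of 19 antimicrobials against field isolates of P. multocida, M. haemolytica, H. somni (deep nasopharyngeal swabs) and E. coli, Enterococcus spp. (rectal swabs) from weaned dairy heifers. Incubation 16-24 h at 35 C. MIC is the lowest concentration preventing visible growth. Values with <= or > lie at the tested range limits. Trimethoprim-sulfamethoxazole is given as the trimethoprim component of a 1:19 mixture.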

CCCN1C[C@H](C)[C@@H](O)[C@](C)(O)[C@@H](CC)OC(=O)[C@H](C)[C@@H](O[C@H]2C[C@@](C)(OC)[C@@H](O)[C@H](C)O2)[C@H](C)[C@@H](O[C@@H]2O[C@H](C)C[C@H](N(C)C)[C@H]2O)[C@](C)(O)C[C@H]1C [Gamithromycin]
Conditions | minimum inhibitory concentration [µg/mL]
isolate (source animal id): 8 | 8 (≈ 10.3 µM)
isolate (source animal id): 9 | > 8
isolate (source animal id): 10 | 8 (≈ 10.3 µM)
isolate (source animal id): 11 | 8 (≈ 10.3 µM)
isolate (source animal id): 12 | 8 (≈ 10.3 µM)
isolate (source animal id): 13 | 8 (≈ 10.3 µM)
isolate (source animal id): 14 | > 8
isolate (source animal id): 15 | 4 (≈ 5.15 µM)
isolate (source animal id): 16 | 8 (≈ 10.3 µM)
isolate (source animal id): 98 | 8 (≈ 10.3 µM)
isolate (source animal id): 99 | 8 (≈ 10.3 µM)
isolate (source animal id): 100 | 4 (≈ 5.15 µM)
isolate (source animal id): 101 | 8 (≈ 10.3 µM)
isolate (source animal id): 102 | 8 (≈ 10.3 µM)
isolate (source animal id): 103 | 8 (≈ 10.3 µM)
isolate (source animal id): 104 | 8 (≈ 10.3 µM)
isolate (source animal id): 105 | 8 (≈ 10.3 µM)
isolate (source animal id): 106 | > 8
isolate (source animal id): 107 | 8 (≈ 10.3 µM)
isolate (source animal id): 108 | 8 (≈ 10.3 µM)
isolate (source animal id): 109 | 8 (≈ 10.3 µM)
isolate (source animal id): 110 | 4 (≈ 5.15 µM)
isolate (source animal id): 111 | 4 (≈ 5.15 µM)
isolate (source animal id): 112 | 8 (≈ 10.3 µM)
isolate (source animal id): 113 | 4 (≈ 5.15 µM)
isolate (source animal id): 114 | 8 (≈ 10.3 µM)
isolate (source animal id): 115 | > 8
isolate (source animal id): 116 | 4 (≈ 5.15 µM)
isolate (source animal id): 117 | > 8
isolate (source animal id): 118 | 8 (≈ 10.3 µM)
isolate (source animal id): 119 | > 8
isolate (source animal id): 120 | > 8
isolate (source animal id): 121 | 8 (≈ 10.3 µM)
isolate (source animal id): 122 | 8 (≈ 10.3 µM)
isolate (source animal id): 123 | 8 (≈ 10.3 µM)
isolate (source animal id): 124 | > 8
isolate (source animal id): 125 | ≤ 1
isolate (source animal id): 126 | > 8
isolate (source animal id): 127 | 8 (≈ 10.3 µM)
isolate (source animal id): 128 | 4 (≈ 5.15 µM)
isolate (source animal id): 129 | 4 (≈ 5.15 µM)
isolate (source animal id): 130 | 4 (≈ 5.15 µM)
isolate (source animal id): 131 | 4 (≈ 5.15 µM)
isolate (source animal id): 132 | 8 (≈ 10.3 µM)
isolate (source animal id): 133 | 8 (≈ 10.3 µM)
isolate (source animal id): 134 | 8 (≈ 10.3 µM)
isolate (source animal id): 135 | 8 (≈ 10.3 µM)
isolate (source animal id): 136 | 8 (≈ 10.3 µM)
isolate (source animal id): 137 | 8 (≈ 10.3 µM)
isolate (source animal id): 138 | > 8
isolate (source animal id): 139 | > 8
isolate (source animal id): 140 | 8 (≈ 10.3 µM)
isolate (source animal id): 141 | > 8
isolate (source animal id): 142 | 8 (≈ 10.3 µM)
isolate (source animal id): 143 | > 8
isolate (source animal id): 144 | > 8
isolate (source animal id): 145 | > 8
isolate (source animal id): 146 | 8 (≈ 10.3 µM)
isolate (source animal id): 147 | > 8
isolate (source animal id): 148 | 8 (≈ 10.3 µM)
isolate (source animal id): 149 | 8 (≈ 10.3 µM)
isolate (source animal id): 150 | > 8
isolate (source animal id): 151 | 8 (≈ 10.3 µM)
isolate (source animal id): 152 | 4 (≈ 5.15 µM)
isolate (source animal id): 153 | 8 (≈ 10.3 µM)
isolate (source animal id): 154 | 8 (≈ 10.3 µM)
isolate (source animal id): 155 | 4 (≈ 5.15 µM)
isolate (source animal id): 156 | > 8
isolate (source animal id): 157 | 8 (≈ 10.3 µM)
isolate (source animal id): 158 | 8 (≈ 10.3 µM)
isolate (source animal id): 159 | 4 (≈ 5.15 µM)
isolate (source animal id): 160 | > 8
isolate (source animal id): 161 | > 8
isolate (source animal id): 162 | 8 (≈ 10.3 µM)
isolate (source animal id): 163 | 8 (≈ 10.3 µM)
isolate (source animal id): 164 | 8 (≈ 10.3 µM)
isolate (source animal id): 165 | 8 (≈ 10.3 µM)
isolate (source animal id): 166 | 4 (≈ 5.15 µM)
isolate (source animal id): 167 | 8 (≈ 10.3 µM)
isolate (source animal id): 168 | 8 (≈ 10.3 µM)
isolate (source animal id): 169 | 8 (≈ 10.3 µM)
isolate (source animal id): 170 | 8 (≈ 10.3 µM)
isolate (source animal id): 171 | 8 (≈ 10.3 µM)
isolate (source animal id): 172 | 8 (≈ 10.3 µM)
isolate (source animal id): 173 | 4 (≈ 5.15 µM)
isolate (source animal id): 174 | 8 (≈ 10.3 µM)
isolate (source animal id): 175 | 8 (≈ 10.3 µM)
isolate (source animal id): 176 | 8 (≈ 10.3 µM)
isolate (source animal id): 177 | 8 (≈ 10.3 µM)
isolate (source animal id): 178 | 8 (≈ 10.3 µM)
isolate (source animal id): 179 | 8 (≈ 10.3 µM)
isolate (source animal id): 180 | 8 (≈ 10.3 µM)
isolate (source animal id): 181 | > 8
isolate (source animal id): 182 | 8 (≈ 10.3 µM)
isolate (source animal id): 183 | 8 (≈ 10.3 µM)
isolate (source animal id): 184 | 8 (≈ 10.3 µM)
isolate (source animal id): 185 | 8 (≈ 10.3 µM)
isolate (source animal id): 186 | 8 (≈ 10.3 µM)
isolate (source animal id): 187 | 4 (≈ 5.15 µM)
isolate (source animal id): 188 | 2 (≈ 2.57 µM)
